Tests used:
Format in all cases: cell-based, murine
FOXM1 = test: Western blot of FOXM1 levels in GT1-7 CARY cells; conditions: relative to p84 loading control, FIG. 3C
Source text: Western Blot. Cell lysates was separated on a 6% SDS page gel and transferred to a nitrocellulose membrane. The membrane was blocked for one hour in 5% skim milk dissolved in TBS-T and probed with the following antibodies ([…]): FoxM1 (rabbit, GeneTex), AR: 441 (mouse, Santa Cruz Biotechnology), β-catenin (rabbit 9562, Cell Signaling Technology), p84 (mouse, GeneTex) and actin (mouse, Santa Cruz Biotechnology). Horse radish peroxidase linked secondary antibodies were used along with ECL reagents for visualization. Western blots were quantified using Quantity One analysis software (BioRad).
It has been previously reported that thiostrepton causes decreased levels of FOXM1. Hegde et al, Nat Chem, 3(9):725-31 (2011); Gartel, Front Oncol, 3:150 (2013). […] The nuclear association between FOXM1 and β-catenin increases the transcriptional activity of both factors. Zhang et al, Cancer Cell, 20(4):427-42 (2011). β-catenin is a key AR coactivator in a variety of cells. Yang, J Biol Chem, 277(13):11336-44 (2002); Truica et al, Cancer Res, 60(17):4709-13 (2000). The inventors believed that thiostrepton could inhibit AR activity by limiting access to nuclear β-catenin via FOXM1 depletion. […] As expected, control actin protein was observed primarily in cytoplasmic fraction.

AR [1] = test: Androgen-responsive luciferase reporter assay in GT1-7 cells; conditions: GT1-7 cells, treated overnight, FIG. 2A
Procedure: Luciferase Reporter Assay. […] The following day, cells and drugs were distributed to 96-well plates. 24 hours later, luciferase activity was assessed by a dual luciferase assay kit (Promega) on the Tecan plate reader. Samples were run in quadruplicates and a Student's t test was performed to determine significance, where p<0.05 was considered significant.
In order to identify potential cell-type selective AR modulators, the FRET-based assay of AR conformation change was utilized. AR signaling is a complex process involving many steps in addition to ligand binding. One crucial step is the ligand-induced conformational change of AR, which brings the carboxy (C)- and amino (N)-termini of the receptor together. Full length AR with cyan fluorescent protein (CFP) or yellow fluorescent protein (YFP) fused to either end (CARY) produces a FRET signal upon AR conformation change (FIG. 1A). This produces an accurate and quantifiable read-out of AR activity. […] Cells were plated in 96 wells and treated with library compounds 24 hours prior to accessing conformational changes by FRET. […] Candidate hits were then further evaluated by dose response. […] In addition to FRET, AR transcriptional activity was also assessed in several cell lines by transfecting cells with a luciferase reporter driven by the human PSA promoter.

AR [2] = test: Androgen-responsive luciferase reporter assay in C2C12 cells; conditions: treated overnight, FIG. 2A
Source text: Luciferase Reporter Assay. Cells were transfected using Lipofectamine Plus (Invitrogen) with a normalization plasmid (pRL-SV40, Promega) and an androgen responsive plasmid (MMTV-luciferase or PSA-luciferase) as described in Jones et al, ACS Chem Biol, 3(7):412-8 (2008), and, where indicated, with an shRNA plasmid targeting FOXM1 (adapted for mouse FOXM1 sequence targeting) a scrambled control shRNA plasmid, or ARQ24 or ARQ65 plasmids. Christensen et al, PLoS One, 8(1):e54556 (2013). The following day, cells and drugs were distributed to 96-well plates. 24 hours later, luciferase activity was assessed by a dual luciferase assay kit (Promega) on the Tecan plate reader. Samples were run in quadruplicates and a Student's t test was performed to determine significance, where p<0.05 was considered significant.
In order to identify potential cell-type selective AR modulators, the FRET-based assay of AR conformation change was utilized. AR signaling is a complex process involving many steps in addition to ligand binding. One crucial step is the ligand-induced conformational change of AR, which brings the carboxy (C)- and amino (N)-termini of the receptor together. Full length AR with cyan fluorescent protein (CFP) or yellow fluorescent protein (YFP) fused to either end (CARY) produces a FRET signal upon AR conformation change (FIG. 1A). This produces an accurate and quantifiable read-out of AR activity. Jones et al, ACS Chem Biol, 3(7):412-8 (2008). Because the interest was in the potential of neuron selective AR inhibitors for treatment of SBMA, the initial screen was carried out in CARY-transfected GT1-7 cells, which are a mouse model of hypothalamic neurons. Liposits et al, Endocrinology, 129(3):1575-83 (1991). Cells were plated in 96 wells and treated with library compounds 24 hours prior to accessing conformational changes by FRET. […] Candidate hits were then further evaluated by dose response. […] In addition to FRET, AR transcriptional activity was also assessed in several cell lines by transfecting cells with a luciferase reporter driven by the human PSA promoter. […]

C[C@]12CCC(=O)C[C@@H]1CC[C@@H]1[C@@H]2CC[C@]2(C)[C@@H](O)CC[C@@H]12 [DHT, dihydrotestosterone]
FOXM1 levels (Western blot) (FOXM1): increased

Nc1c(C(=O)Nc2ccc(F)cc2)sc2nc(-c3cccs3)cc(C(F)(F)F)c12 [FDI-6]
inhibition of AR transcriptional activity (luciferase) (AR [1]): inhibited AR activity | inhibition of AR transcriptional activity (luciferase) (AR [2]): not C2C12 cells

From US11167007B2, “FOXM1 modulators and uses thereof” (City of Hope, priority 2016, dated 2021)
